Reference: ChEMBL document CHEMBL6071148, “Synthesis and biological evaluation of novel 3,6- amide and thioamide substituted- 2,3,4,9-tetrahydro-1H-carbazoles for anti-cancer activity” (Eur J Med Chem, 2024)
pIC50: −log10 of the molar value. The source made the active and inactive calls. The rule behind the calls is not given here.

Columns and labels:
Mitochondrial membrane [1] = assay: Induction of mitochondrial membrane depolarization in human MCF7 cells assessed as increase in mitochondrial fission by measuring appearance of circular mitochondria by confocal microscopic analysis; format: cell membranes
MCF7 [2] = assay: Cytotoxicity against human MCF7 cells assessed as inhibition of cell proliferation incubated for 72 hrs by MTT assay; format: functional, cell-based; conditions: MCF7, 72 h
MCF7 [3] = assay: Induction of cell cycle arrest in human MCF7 cells assessed as accumulation of cells at G2 phase at IC50 incubated for 24 hrs by PI staining based flow cytometric analysis relative to control; format: functional
MCF7 [4] = assay: Induction of apoptosis in human MCF7 cells assessed as increase in apoptotic cells incubated for 24 hrs by Annexin-V and 7-AAD staining based flow cytometric analysis (reference value: 5.70 +/- 1.56%); format: functional
MCF7 [5] = assay: Antitumor activity against human MCF7 cells xenografted in chicken embryo chorioallantoic membrane assessed as reduction in tumor size; format: functional, cell-based; conditions: dose 1.5-4.5 µM
A549 [6] = assay: Antitumor activity against human A549 cells xenografted in chicken embryo chorioallantoic membrane assessed as reduction in tumor size; format: functional, cell-based; conditions: dose 1.5-4.5 µM
MCF7 [7] = assay: Inhibition of cell adhesion in human MCF7 cells assessed as reduction in cell aggregates formation at IC50 incubated for 48 hrs by inverted phase contrast microscopic analysis; format: functional, cell-based
A549 [8] = assay: Inhibition of cell adhesion in human A549 cells assessed as reduction in cell aggregates formation at IC50 incubated for 48 hrs by inverted phase contrast microscopic analysis; format: functional, cell-based
MCF7 [9] = assay: Induction of DNA damage in human MCF7 cells assessed as gammaH2AX positive cells at IC50 incubated for 48 hrs by PI staining based flow cytometric analysis (reference value: 7.58 +/- 1.23%); format: functional
MCF7 [10] = assay: Induction of cell cycle arrest in human MCF7 cells assessed as accumulation of cells at S phase at IC50 incubated for 48 hrs by PI staining based flow cytometric analysis; format: functional
Mitochondrial membrane [11] = assay: Induction of mitochondrial membrane depolarization in human A549 cells assessed as increase in mitochondrial fission by measuring appearance of spherical mitochondria by confocal microscopic analysis; format: cell membranes
Mitochondrial membrane [12] = assay: Disruption of mitochondrial membrane potential in human A549 cells assessed as translocation of cytochrome c to cytoplasm at IC50 incubated for 48 hrs by confocal microscopic analysis; format: cell membranes
Mitochondrial membrane [13] = assay: Induction of mitochondrial membrane depolarization in human MCF7 cells assessed as increase in mitochondrial fission by measuring appearance of shortened mitochondria by confocal microscopic analysis; format: cell membranes
A549 [14] = assay: Induction of apoptosis in human A549 cells assessed as apoptotic rate at IC50 incubated for 48 hrs by Annexin-V and 7-AAD staining based flow cytometric analysis (reference value: 6.56 +/- 1.17%); format: functional
A549 [15] = assay: Induction of cell cycle arrest in human A549 cells assessed as accumulation of cells at G1 phase at IC50 incubated for 48 hrs by PI staining based flow cytometric analysis (reference value: 53.5 +/- 4.01%); format: functional
Mitochondrial membrane [16] = assay: Disruption of mitochondrial membrane integrity in human MCF7 cells assessed as disruption of normal mitochondrial distribution by TEM analysis; format: cell membranes
Mitochondrial membrane [17] = assay: Disruption of mitochondrial membrane potential in human MCF7 cells assessed as translocation of cytochrome c to cytoplasm at IC50 incubated for 48 hrs by confocal microscopic analysis; format: cell membranes
Mitochondrial membrane [18] = assay: Disruption of mitochondrial membrane integrity in human MCF7 cells assessed as organization of mtDNA nucleoids within cells by TEM analysis; format: cell membranes

Activity (Mitochondrial membrane [1]): Active | Activity (Mitochondrial membrane [11]): Active | Activity (Mitochondrial membrane [12]): Active | Activity (Mitochondrial membrane [13]): Active | Activity (Mitochondrial membrane [16]): Active | Activity (Mitochondrial membrane [17]): Active
Structure (SMILES): CC(=S)NC1CCc2[nH]c3ccc(Br)cc3c2C1 (stereo not drawn)
pIC50 (MCF7 [2]): 5.42 | Activity (MCF7 [3]): 25.95% | Activity (MCF7 [4]): 10.8% | Activity (MCF7 [5]): Dose-Dependent Effect | Activity (A549 [6]): Dose-Dependent Effect | inhibition (MCF7 [7]): Active | inhibition (A549 [8]): Active | Activity (MCF7 [9]): 16.78% | Activity (MCF7 [10]): Active | Activity (A549 [14]): 42.87% | Activity (A549 [15]): 46.15% | Activity (Mitochondrial membrane [18]): Active
